Here are results for one compound from publication PMC12009420, “Dynamically chiral phosphonic acid-type metallo-β-lactamase inhibitors” (Communications Chemistry, 2025).

Read-outs that look alike come from different tables or passages of the source.

For one data set, the target named is T1, 15N-labelled VIM-2 (Escherichia coli, UniProt Q5U7L7).
T1 construct: made in house
As to the kind of experiment: 1H,15N-HSQC titration of VIM-2. The class given is binding. As to conditions: 10 equivalents of compound, 600 MHz, pH 7.0, 25 °C. The method, then: The ^1H, ^15N-HSQC spectra for the titration experiments were recorded on a Bruker Avance Neo 600 MHz spectrometer equipped with a 5 mm TCI cryogenic probe at 25 °C. The U-[^15N]-labeled VIM-2 was prepared in a buffer of 20 mM KPO4, 0.1 mM ZnCl2, at pH 7.0, containing 85% H2O/15% D2O at a concentration of 0.25 mM. The U-[^15N]-labeled NDM-1 was used in a buffer of 20 mM HEPES, 0.1 mM ZnCl2, at pH 7.0, containing 85% H2O/15% D2O at a concentration of 0.25 mM. The ligands 5d, 5g, 5i, 5j (for VIM-2 titrations) and 5 f (for NDM-1 titration) were dissolved in the same buffer as the corresponding enzymes. Spectra were recorded using solvent suppression, 1024 points in f1, 16 transients, 512 increments in f2 and a relaxation delay of 0.2 s. The titrations were carried out with 0, 0.25, 0.50, 1.00, 1.50, 2.25, 3.00, 4.00, 5.00, 7.00, 10.0 equivalents of the inhibitors.
Figure S47. Superimposition of the 1H,15N-HSQC spectrum (600 MHz, pH 7.0, 25 °C) of
VIM-2 in the absence (blue) and in the presence (green) of 10 molar equivalent of compound
5j. Buffer: 20 mM KPO4, 0.1 mM ZnCl2, with 15% D2O.
Chemical shift perturbation values (CSP, ΔδNH) were calculated as the weighted average of
the chemical shift changes in f1 (ΔδN) and f2 (ΔδH) dimensions using the following equation 8:
∆δ = √∆δ 2 + ( N ); R = 6.5
Figure S48. Linear regression of the chemical shift perturbations of compound 5g (IC50 =
12 μM) as a function of the chemical shift perturbations of compounds 5c (yellow circle), 5d
(grey square), 5i (green triangle) and 5j (blue circle) for VIM-2. The data of the studied […]

The nature of the next data set: MTT cytotoxicity assay. The class given is cell-based. As to conditions: human, HepG2 cells. A general note: Formazan colour is commonly taken as a measure of viable cells.
Data set [1] can be described thus: Long term stability in buffer with 2.5% DMSO (LC-MS). The data set is classed as physicochemical. The following applies: 20 mM KPO4, 0.1 mM ZnCl2, pH 7.0 + 2.5% DMSO; LC-MS 254 nm.

Usually CC50 stands for the concentration at which the toxic effect on the cells reaches its halfway point. Turning to `O=C(NC(c1ccccc1O)P(=O)(O)O)c1scc2c1CCCC2` (centres unmarked) [5g], the “Mean chemical shift perturbation, VIM-2” value on 15N-labelled VIM-2 came out at 0.04 ppm. The CC50 at 24 h in “MTT cytotoxicity assay” (HepG2, MTT, read-out: CC50 (in viability curve)) turned out to be 1.4 mM. Also, in “MTT cytotoxicity assay” (MTT, 0.0025 mM - 1mM concentration range, read-out: Cytotoxicity CC50 HepG2), the CC50 at 24 h turned out to be 1.42 mM. In data set [1], the “main peak Area% kept in buffer for 1 month” value was 98.05% and the “main peak Area% right after dissolving in buffer” value turned out to be 98.21%.
